Experiments:
[1] = LogP by HPLC on reversed phase columns (EEC directive 79/831 Annex V.A8); assay type: physicochemical; settings: logP (HCOOH) [a]
Method: Calibration was done with straight-chain alkan2-ones (with 3 to 16 carbon atoms) with known Log P values (measurement of Log P values using retention times with linear interpolation between successive alkanones). Lambda-max-values were determined using UV-spectra from 200 nm to 400 nm and the peak values of the chromatographic signals.

[2] = test system: Nippostrongylus brasiliensis; assay: In vitro assay with Nippostrongylus brasiliensis (NIPOBR), acetylcholine esterase readout; settings: adult worms, read-out: activity (reduction of AChE compared to negative control); for inhibition at 1 ppm: 1 ppm (1 μg/ml); for inhibition at 10 ppm: 10 ppm (10 μg/ml)
Method: In Vitro Assay with Nippostrongylus brasiliensis (NIPOBR)
Adult Nippostrongylus brasiliensis were washed with saline buffer containing 100 U/ml penicillin, 0.1 mg/ml streptomycin and 2.5 μg/ml amphotericin B. Test compounds were dissolved in DMSO and worms were incubated in medium in a final concentration of 10 μg/ml (10 ppm) respectively 1 μg/ml (1 ppm). An aliquot of the medium was used to determine the acetylcholine esterase activity in comparison to a negative control. The principle of measuring acetylcholine esterase as readout for anthelmintic activity was described in Rapson et al (1986) and Rapson et al (1987).

Cooperia curticei = assay: In vitro assay with Cooperia curticei (COOPCU), larval mortality; settings: 120 h, read-out: activity (larval mortality)
Method: In Vitro Assay with Cooperia curticei (COOPCU)
(§1) Solvent: Dimethyl Sulfoxide
(§2) To produce a suitable preparation of active compound, 10 mg of active compound are dissolved in 0.5 ml solvent, and the concentrate is diluted with “Ringer's solution” to the desired concentration.
Approximately 40 nematode larvae (Cooperia curticei) are transferred into a test tube containing the compound solution.
After 5 days percentage of larval mortality is recorded. 100% efficacy means all larvae are killed; 0% efficacy means no larvae are killed.

Haemonchus contortus = assay: In vitro assay with Haemonchus contortus (HAEMCO), larval mortality; settings: 120 h; for mortality at 20 ppm: read-out: activity (larval mortality)
Method: In Vitro Assay with Haemonchus contortus (HAEMCO)
as §1, §2
Approximately 40 larvae of the red stomach worm (Haemonchus contortus) are transferred into a test tube containing compound solution.
After 5 days percentage of larval mortality are recorded. 100% efficacy means all larvae are killed, 0% efficacy means no larvae are killed.

Meloidogyne incognita = Meloidogyne incognita (MELGIN) assay, gall formation on salad seedlings; assay type: in vivo; settings: 336 h, after 14 days, read-out: nematicidal activity (percentage of gall formation; 100% = no galls)
Method: Meloidogyne incognita (MELGIN) Assay
Solvent: 125.0 parts by weight of acetone
To produce a suitable preparation of active compound, 1 part by weight of active compound is mixed with the stated amount of solvent, and the concentrate is diluted with water to the desired concentration.
Vessels are filled with sand, a solution of the active ingredient, a suspension containing eggs and larvae of the southern root-knot nematode (Meloidogyne incognita) and salad seeds. The salad seeds germinate and the seedlings grow. Galls develop in the roots.
After 14 days the nematicidal activity is determined on the basis of the percentage of gall formation. 100% means no galls were found and 0% means the number of galls found on the roots of the treated plants was equal to that in untreated control plants.

## O=C(NCC(F)(F)c1ncc(-c2cc(Cl)cc(Cl)c2)cc1Cl)c1ccccc1C(F)(F)F [Example 11]
[1]
  chromatographic logP: 4.64
[2]
  inhibition at 1 ppm: ≥ 60%
  inhibition at 10 ppm: ≥ 60%
Cooperia curticei
  mortality at 20 ppm: 100%
Haemonchus contortus
  mortality at 20 ppm: 100%
Meloidogyne incognita
  pest or weed control at 20 ppm: 90%

## O=C(NCC(F)(F)c1ncc(-c2ccc(F)c(F)c2)cc1Cl)c1ccccc1C(F)(F)F [Example 14]
[1]
  chromatographic logP: 3.84
[2]
  inhibition at 1 ppm: ≥ 60%
  inhibition at 10 ppm: ≥ 60%
Cooperia curticei
  mortality at 20 ppm: 100%
Haemonchus contortus
  mortality at 20 ppm: 100%
Meloidogyne incognita
  pest or weed control at 20 ppm: 100%

## O=C(NCC(F)(F)c1ncc(-c2ccc(Cl)cc2Cl)cc1Cl)c1ccccc1C(F)(F)F [Example 15]
[1]
  chromatographic logP: 4.57
[2]
  inhibition at 1 ppm: ≥ 60%
  inhibition at 10 ppm: ≥ 60%
Cooperia curticei
  mortality at 20 ppm: 100%
Haemonchus contortus
  mortality at 20 ppm: 100%
Meloidogyne incognita
  pest or weed control at 20 ppm: 90%

## O=C(NCC(F)(F)c1ncc(-c2ccc(F)cc2)cc1Cl)c1ccccc1C(F)(F)F [Example 24]
[1]
  chromatographic logP: 3.74
[2]
  inhibition at 1 ppm: ≥ 60%
  inhibition at 10 ppm: ≥ 60%
Cooperia curticei
  mortality at 20 ppm: 100%
Haemonchus contortus; HAEMCO, 0.8 ppm, 5dat, comparative example, read-out: % Efficacy
  Emax at 0.8 ppm: 100%
Haemonchus contortus; HAEMCO, 4 ppm, 5dat, comparative example, read-out: % Efficacy
  Emax at 4 ppm: 100%
Haemonchus contortus; HAEMCO, 20 ppm, 5dat, comparative example, read-out: % Efficacy
  Emax at 20 ppm: 100%
Haemonchus contortus
  mortality at 20 ppm: 100%
Meloidogyne incognita
  pest or weed control at 20 ppm: 100%

— US9776967B2, “Carboxamide derivatives as pesticidal compounds” (priority 2013, dated 2017)
